Assay results: patent US10654867B2 (Genentech, Inc., priority 2016, dated 2020)

target: T1, estrogen receptor alpha (ESR1) in MCF7 breast cancer cells (Homo sapiens, UniProt P03372); assay: Breast Cancer Cell ERa High Content Fluorescence Imaging Degradation Assay (ER-alpha MCF7 HCS); assay type: cell-based; set-up: endogenous in cells; host or cells: MCF7 breast cancer cells; key to ERalpha (WT) MCF7HCS (Sinf): % change in ERα level; DMSO = 0%, fulvestrant = 100% change; conditions: 4 hours, plateau of the maximal effect, DMSO and fulvestrant define 0% and 100% change in ESR1, Table 1a
T1 sequence (P03372 1-595): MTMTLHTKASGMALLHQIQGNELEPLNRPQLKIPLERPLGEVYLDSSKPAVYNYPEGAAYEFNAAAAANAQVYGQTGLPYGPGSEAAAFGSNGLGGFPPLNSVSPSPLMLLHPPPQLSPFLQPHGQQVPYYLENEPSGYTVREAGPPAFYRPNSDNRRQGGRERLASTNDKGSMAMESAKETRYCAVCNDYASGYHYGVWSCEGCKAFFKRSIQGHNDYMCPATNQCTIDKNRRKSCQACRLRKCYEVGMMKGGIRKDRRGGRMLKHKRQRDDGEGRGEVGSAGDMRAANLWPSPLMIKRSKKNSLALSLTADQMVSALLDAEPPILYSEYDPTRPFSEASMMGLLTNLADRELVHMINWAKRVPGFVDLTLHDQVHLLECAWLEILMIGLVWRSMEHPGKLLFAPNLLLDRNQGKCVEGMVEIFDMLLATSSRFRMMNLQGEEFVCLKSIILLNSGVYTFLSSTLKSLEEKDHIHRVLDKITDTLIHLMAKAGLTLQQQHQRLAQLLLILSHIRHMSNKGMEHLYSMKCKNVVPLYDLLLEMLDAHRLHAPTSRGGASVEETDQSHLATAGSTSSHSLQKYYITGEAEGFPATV
Experimental: All of the exemplary Formula I, II, and III compounds in Tables 1a and 1b were made and characterized by LCMS [M+H]^+ (liquid chromatography mass spectroscopy) with detection of parent ion. All of the exemplary Formula I, II, and III compounds in Tables 1a and 1b were tested for binding to ERa (Estrogen Receptor alpha) and biological activity according to the assays, protocols, and procedures of Examples 901-907. ER-alpha MCF7 HCS Sinf (%) values in Tables 1a and 1b were measured by the Breast Cancer Cell ERa High Content Fluorescence Imaging Degradation Assay of Example 901. ER-alpha MCF7 HCS EC50 (μM) values in Tables 1a and 1b were measured by the in vitro cell proliferation assays described in Examples 902 and 903. The rat uterine wet weight assays of Examples 906 and 907 allow rapid determination of compound antagonist activity in an ER responsive tissue (immature rat uterus) while competing against the native ER ligand estradiol, i.e. antagonist mode (Ashby, J.; et al (1997) Regulatory toxicology and pharmacology: RTP, 25 (3):226-31). Exemplary Formula I, II, and III compounds in Tables 1a and 1b have the following structures, corresponding names (ChemBioDraw, Version 12.0.2, CambridgeSoft Corp., Cambridge Mass.), and biological activity. Where more than one name is associated with a Formula I, II, and III compound or intermediate, the chemical structure shall define the compound.
MCF7 breast cancer cells were seeded on day 1 at a density of 10,000 cells per well in 384 well poly-lysine coated tissue culture plate (Greiner # T-3101-4), in 50 μL/well RPMI (phenol red free), 10% FBS (Charcoal stripped), containing L-glutamine. On day 2, compounds were prepared at 2 compound source concentrations: 100 μM and 1 μM (ultimately to give 2 overlapping titration curves), in a Labcyte low dead volume plate, 10 μL/well, and 10 μL of DMSO in designated wells for backfill, and 5 μM Fulvestrant (control compound) in designated wells. Compounds and controls were dispensed using a Labcyte Echo acoustic dispenser to dispense compounds with a predefined serial dilution (1.8×, 10 point, in duplicate) and appropriate backfill and control compounds (final total volume transferred was 417.5 nL and compound dispense volume ranges from 2.5 nL to 417.5 nL; 0.84% DMSO (v/v) final), ultimately producing a concentration range from 0.05 nM to 835 nM. Cell plates were incubated at 37° C., for 4 hours. Fixation and permeabilization were carried out using a Biotek EL406 plate washer and dispenser as follows. Cells were fixed by addition of 15 μL of 16% paraformaldehyde (Electron Microscopy Sciences #15710-S) directly to the 50 μL cell culture medium in each well using the peristaltic pump 5 μL cassette on a Biotek EL406 (final concentration of formaldehyde was 3.7% w/v). Samples were incubated 30 minutes. Well contents was aspirated and 50 μL/well of Phosphate Buffered Saline (PBS) containing 0.5% w/v bovine serum albumen, 0.5% v/v Triton X-100 (Antibody Dilution Buffer) was added to each well. Samples were incubated for 30 minutes. Well contents were aspirated and washed 3 times with 100 μL/well of PBS. Immunofluorescence staining of estrogen receptor alpha (ESR1) was carried out using a Biotek EL406 plate washer and dispenser as follows. The well supernatant was aspirated from the wells and 25 μL/well of anti-ESR1 mAb (F10) (Santa Cruz sc-8002) diluted 1:1000 in Antibody Dilution Buffer was dispensed. Samples were incubated for 2 hours at room temperature. Samples were washed 4 times with 100 μL/well of PBS. 25 uL (microliters)/well of secondary antibody solution (Alexafluor 488 conjugate anti-mouse IgG (LifeTechnologies # A21202) diluted 1:1000 and Hoechst 33342 1 μg/ml diluted in Antibody Dilution Buffer) were dispensed into each well. Samples were incubated for 2 hours at room temperature. Samples were washed 3 times with 100 μL/well of PBS using a Biotek EL406. Quantitative fluorescence imaging of ESR1 was carried out using a Cellomics Arrayscan V (Thermo). […]

Question: How did the “ER-alpha MCF7HCS Sinf” value turn out when `CC(C)C(=O)N1[C@H](c2c(F)cc(OCCN3CC(CF)C3)cc2F)c2sc3ccccc3c2C[C@H]1C` (relative stereo) [Example 102, 1-((1,3-trans)-1-(2,6-difluoro-4-(2-(3-(fluoromethyl)azetidin-1-yl)ethoxy)phenyl)-3-methyl-3,4-dihydrobenzo[4,5]thieno[2,3-c]pyridin-2(1H)-yl)-2-methylpropan-1-one] was run?
Answer: −64.5%

Question: For `C[C@@H]1CN(CC(C)(C)F)[C@H](c2c(F)cc(OCCN3CC(CF)C3)cc2F)c2[nH]c3ccccc3c21` (single isomer, unassigned) [Example 108], which “ER-alpha MCF7HCS Sinf” value is on record?
Answer: −92.4%

Question: With `C[C@@H]1CCc2c([nH]c3ccccc23)[C@@H](c2c(F)cc(OCCN3CC(CF)C3)cc2F)N1CC(C)(C)F` [Example 116, (1R,3R)-1-(2,6-difluoro-4-(2-(3-(fluoromethyl)azetidin-1-yl)ethoxy)phenyl)-2-(2-fluoro-2-methylpropyl)-3-methyl-1,2,3,4,5,10-hexahydroazepino[3,4-b]indole] as the molecule, how does the “ER-alpha MCF7HCS Sinf” value read?
Answer: −93.5%

Question: With `C[C@@H]1Cc2sc3ccccc3c2[C@H](c2ccc(OCCN3CC(CF)C3)cc2)N1CC(C)(C)F` (single isomer, unassigned) [Example 130] as the molecule, how does the “ER-alpha MCF7HCS Sinf” value read?
Answer: −76.8%

Question: Which “ER-alpha MCF7HCS Sinf” value does the source give for `C[C@@H]1Cc2c([nH]c3ncccc23)[C@@H](c2c(F)cc(OC3CN(CCCF)C3)cc2F)N1CC(C)(C)F` (single isomer, unassigned) [Example 120] here?
Answer: −88.0%

Question: How did the “ER-alpha MCF7HCS Sinf” value turn out when `C[C@@H]1Cc2c(oc3ccccc23)[C@@H](c2c(F)cc(NC3CN(CCCF)C3)cc2F)N1CC(F)(F)CO` (single isomer, unassigned) [Example 157] was run?
Answer: −102%

Question: With `CC1Cc2[nH]c3ccccc3c2C(c2c(F)cc(NC3CN(CCCF)C3)cc2F)N1CCF` (centres unmarked) [Example 149, (□)-N-(3,5-difluoro-4-(2-(2-fluoroethyl)-3-methyl-2,3,4,5-tetrahydro-1H-pyrido[4,3-b]indol-1-yl)phenyl)-1-(3-fluoropropyl) azetidin-3-amine] as the molecule, how does the “ER-alpha MCF7HCS Sinf” value read?
Answer: −75%

Question: Which “ER-alpha MCF7HCS Sinf” value does the source give for `CC(C)(F)CN1CCCc2c([nH]c3ccccc23)[C@H]1c1c(F)cc(OCCN2CC(CF)C2)cc1F` [Example 103, (R)-1-(2,6-difluoro-4-(2-(3-(fluoromethyl)azetidin-1-yl)ethoxy)phenyl)-2-(2-fluoro-2-methylpropyl)-1,2,3,4,5,10-hexahydroazepino[3,4-b]indole] here?
Answer: −96.7%

Question: `C[C@@H]1Cn2c(cc3ccccc32)[C@@H](c2c(F)cc(OC3CN(CCCF)C3)cc2F)N1CC(C)(C)F` [Example 110, (1R,3R)-1-(2,6-Difluoro-4-((1-(3-fluoropropyl)azetidin-3-yl)oxy)phenyl)-2-(2-fluoro-2-methylpropyl)-3-methyl-1,2,3,4-tetrahydropyrazino[1,2-a]indole] was tested. Which “ER-alpha MCF7HCS Sinf” value did it give?
Answer: −100%

Question: How did the “ER-alpha MCF7HCS Sinf” value turn out when `C[C@@H]1Cc2c(sc3ccccc23)[C@@H](c2c(F)cc(NC3CN(CCCF)C3)cc2F)N1CC(F)(F)CO` (single isomer, unassigned) [Example 159] was run?
Answer: −102%

Question: For `C[C@@H]1Cn2c(cc3ccccc32)[C@@H](c2c(F)cc(OC3CN(CCCF)C3)cc2F)N1CC(C)(F)CO` (stereo partly drawn) [Example 122, 3-((1R,3R)-1-(2,6-Difluoro-4-((1-(3-fluoropropyl)azetidin-3-yl)oxy)phenyl)-3-methyl-3,4-dihydropyrazino[1,2-a]indol-2(1H)-yl)-2-fluoro-2-methylpropan-1-ol], which “ER-alpha MCF7HCS Sinf” value is on record?
Answer: −97%

Question: For `CC(C)(F)C(=O)N1CCCc2c([nH]c3ccccc23)[C@H]1c1c(F)cc(OCCN2CC(CF)C2)cc1F` [Example 106, (R)-1-(1-(2,6-difluoro-4-(2-(3-(fluoromethyl)azetidin-1-yl)ethoxy)phenyl)-3,4,5,10-tetrahydroazepino[3,4-b]indol-2(1H)-yl)-2-fluoro-2-methylpropan-1-one], which “ER-alpha MCF7HCS Sinf” value is on record?
Answer: −35%

Question: How did the “ER-alpha MCF7HCS Sinf” value turn out when `C[C@H]1Cc2[nH]c3ccccc3c2[C@H](c2c(F)cc(NC3CN(CCCF)C3)cc2F)N1CC(F)(F)CO` (single isomer, unassigned) [Example 154] was run?
Answer: −30%

Question: Which “ER-alpha MCF7HCS Sinf” value does the source give for `C[C@@H]1Cn2c(cc3ccccc32)[C@H](c2c(F)cc(NC3CN(CCCF)C3)cc2F)N1CC(F)(F)F` [Example 145, N-(3,5-Difluoro-4-((1S,3R)-3-methyl-2-(2,2,2-trifluoroethyl)-1,2,3,4-tetrahydropyrazino[1,2-a]indol-1-yl)phenyl)-1-(3-fluoropropyl)azetidin-3-amine] here?
Answer: −87%

Question: With `CC(F)(CO)CN1CCCc2c([nH]c3ccccc23)[C@@H]1c1c(F)cc(OCCN2CC(CF)C2)cc1F` (stereo partly drawn) [Example 119, 3-((S)-1-(2,6-difluoro-4-(2-(3-(fluoromethyl)azetidin-1-yl)ethoxy)phenyl)-3,4,5,10-tetrahydroazepino[3,4-b]indol-2(1H)-yl)-2-fluoro-2-methylpropan-1-ol] as the molecule, how does the “ER-alpha MCF7HCS Sinf” value read?
Answer: −95.6%

Question: `C[C@@H]1Cc2[nH]c3ccccc3c2[C@@H](c2c(F)cc(NC3CN(CCCF)C3)cc2F)N1CC(F)(F)CO` (single isomer, unassigned) [Example 155] was tested. Which “ER-alpha MCF7HCS Sinf” value did it give?
Answer: −97.4%

Question: `C[C@H]1Cc2sc3ccccc3c2[C@H](c2ccc(OCCN3CC(CF)C3)cc2)N1CC(C)(C)F` [Example 129, (1S,3S)-2-(2-Fluoro-2-methylpropyl)-1-(4-(2-(3-(fluoromethyl)azetidin-1-yl)ethoxy)phenyl)-3-methyl-1,2,3,4-tetrahydrobenzo[4,5]thieno[3,2-c]pyridine] was tested. Which “ER-alpha MCF7HCS Sinf” value did it give?
Answer: −43.8%

Question: For `C[C@@H]1Cc2c([nH]c3cccnc23)[C@@H](c2c(F)cc(OC3CN(CCCF)C3)cc2F)N1CC(C)(C)F` [Example 133, (6R,8R)-6-{2,6-Difluoro-4-[2-(3-fluoromethyl-azetidin-1-yl)-ethoxy]-phenyl}-7-(2-fluoro-2-methyl-propyl)-8-methyl-6,7,8,9-tetrahydro-5H-dipyrido[3,2-b;4′,3′-d]pyrrole], which “ER-alpha MCF7HCS Sinf” value is on record?
Answer: −94.5%

Question: With `C[C@H]1Cc2c(oc3ccccc23)[C@H](c2c(F)cc(NC3CN(CCCF)C3)cc2F)N1CC(F)(F)CO` (single isomer, unassigned) [Example 158] as the molecule, how does the “ER-alpha MCF7HCS Sinf” value read?
Answer: −88.8%

same assay, conditions: 4 hours, plateau of the maximal effect, DMSO and fulvestrant define 0% and 100% change in ESR1, Table 1b

Question: `C[C@@H]1Cc2sc3ccccc3c2[C@@H](c2c(F)cc(NC3CN(CCCF)C3)cc2F)N1CC(F)(F)CO` [Example 166, 3-((1R,3R)-1-(2,6-difluoro-4-((1-(3-fluoropropyl)azetidin-3-yl)amino)phenyl)-3-methyl-3,4-dihydrobenzo[4,5]thieno[3,2-c]pyridin-2(1H)-yl)-2,2-difluoropropan-1-ol] was tested. Which “ERalpha (WT) MCF7HCS (Sinf)” value did it give?
Answer: −101
